Test [1] concerns the target T1, Methionine aminopeptidase (Escherichia coli K-12, UniProt P0AE18).
T1 sequence (P0AE18 whole entry): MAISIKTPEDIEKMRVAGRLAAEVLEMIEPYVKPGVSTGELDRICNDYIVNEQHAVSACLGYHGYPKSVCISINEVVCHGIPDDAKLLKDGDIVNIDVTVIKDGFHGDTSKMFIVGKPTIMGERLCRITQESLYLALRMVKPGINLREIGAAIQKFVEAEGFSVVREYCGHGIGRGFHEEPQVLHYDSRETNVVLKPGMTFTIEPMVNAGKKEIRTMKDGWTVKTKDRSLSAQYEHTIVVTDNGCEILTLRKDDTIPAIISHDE
As to the kind of experiment: Inhibitory concentration against Escherichia coli methionine aminopeptidase 1.

For test [2], the target named is T2, Methionine aminopeptidase 1 (Saccharomyces cerevisiae S288c, UniProt Q01662).
T2 sequence (Q01662 whole entry): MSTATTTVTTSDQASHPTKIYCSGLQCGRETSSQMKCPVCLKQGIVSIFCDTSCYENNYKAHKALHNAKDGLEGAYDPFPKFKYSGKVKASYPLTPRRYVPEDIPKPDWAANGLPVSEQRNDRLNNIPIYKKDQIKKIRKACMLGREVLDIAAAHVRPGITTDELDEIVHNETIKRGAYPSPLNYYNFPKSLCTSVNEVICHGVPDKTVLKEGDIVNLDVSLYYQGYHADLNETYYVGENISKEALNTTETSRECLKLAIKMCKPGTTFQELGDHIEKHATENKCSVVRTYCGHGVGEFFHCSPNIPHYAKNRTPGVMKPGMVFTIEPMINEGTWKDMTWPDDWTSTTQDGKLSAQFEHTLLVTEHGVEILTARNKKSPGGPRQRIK
In words: Inhibitory concentration against Saccharomyces cerevisiae methionine aminopeptidase 1.

For 14 compounds, IC50 results are on record in ChEMBL document CHEMBL1144280, “Inhibitors of type I MetAPs containing pyridine-2-carboxylic acid thiazol-2-ylamide. Part 1: SAR studies on the determination of the key scaffold” (Bioorg Med Chem Lett, 2005).

Where only a bound is given, the exact number is not on record here.

The term IC50 denotes the midpoint of a concentration-inhibition curve. A lower IC50 goes with higher potency. As to `CC(C)(C)OC(=O)Nc1ccc(C(=O)Nc2nccs2)nc1`, the figures for the IC50 in test [1] and in test [2] were 12.8 µM and 62.9 µM, respectively.
Taken in the same sequence, the figures for `O=C(Nc1nccs1)c1cc([N+](=O)[O-])ccn1` were 4.51 µM and greater than 100 µM.
As for `CC(=O)OCc1cccc(C(=O)Nc2nccs2)n1`, in test [1], the IC50 is greater than 100 µM.
As for `COc1ccnc(C(=O)Nc2nccs2)c1`, the IC50 in test [2] was greater than 100 µM.
For the compound `O=C(Nc1nccs1)c1cc(OCc2ccccc2)ccn1`, the IC50 in test [1] and in test [2] was greater than 100 µM in each case.
As to `CCCCc1ccc(C(=O)Nc2nccs2)nc1`, the IC50 in test [1] and in test [2] was greater than 100 µM each time.
Take `CC(=O)Nc1ccnc(C(=O)Nc2nccs2)c1`: the figures for the half-maximal inhibitory concentration (IC50) in test [1] and in test [2] were 1.98 µM and 17 µM, respectively.
As to `O=C(Nc1nccs1)c1cc(NCc2ccccc2)ccn1`, the IC50 in test [1] is 2.32 µM; in test [2], greater than 100 µM.
Taken in the same sequence, the figures for `O=C(Nc1nccs1)c1cccc(C(=O)Nc2nccs2)n1` were greater than 100 µM and greater than 100 µM.
The like results for `Nc1ccnc(C(=O)Nc2nccs2)c1` were, in that order, 6.71 µM and greater than 100 µM.
The like results for `Nc1ccc(C(=O)Nc2nccs2)nc1` were, in that order, 2.09 µM and 2.43 µM.
As to `O=C(Nc1nccs1)c1ncccc1OCc1ccccc1`, the IC50 was determined as 1.41 µM in test [1] and 0.77 µM in test [2].
The like results for `CC(C)=CCc1ccc(C(=O)Nc2nccs2)nc1` were, in that order, greater than 100 µM and greater than 100 µM.
Take `O=C(Nc1nccs1)c1cc(Cl)ccn1`: the IC50 in test [1] and in test [2] was greater than 100 µM in each case.
